Experimental data taken from publication PMC10310036, “Variability in phenylalanine side chain conformations facilitates broad substrate tolerance of fatty acid binding in cockroach milk proteins” (PLOS ONE, 2023).
Read-outs that look alike come from different tables or passages of the source.

Key:
Assay in all cases: intrinsic tryptophan fluorescence titration
Lili-Mip3 = target: T1, Lili-Mip3; assay type: binding, Diploptera punctata; details: 50 mM sodium acetate pH 4.8, 100 mM NaCl, 25°C, delipidated protein
T1 construct: recombinant, codon-optimised synthetic gene, secreted from S. cerevisiae FGY217 with Ost1 or alpha-factor signal; untagged pYES2 version likely (also made with C-terminal His tag)
Text: intrinsic tryptophan fluorescence titration on Lili-Mip3

Lili-Mip2 = target: T2, Lili-Mip2 (Diploptera punctata, UniProt Q6SVB5); assay type: binding
T2 construct: recombinant, codon-optimised synthetic gene, secreted from S. cerevisiae FGY217 with Ost1 or alpha-factor signal; untagged pYES2 version likely (also made with C-terminal His tag)
Text: intrinsic tryptophan fluorescence titration on Lili-Mip2

Lili-Mip1 = target: T3, Lili-Mip1 (Diploptera punctata, UniProt Q6SVB6); assay type: binding
T3 construct: recombinant, codon-optimised synthetic gene, secreted from S. cerevisiae FGY217 with Ost1 or alpha-factor signal; untagged pYES2 version likely (also made with C-terminal His tag)
Text: intrinsic tryptophan fluorescence titration on Lili-Mip1

[1] = read-out: Myristoleic acid (14:1)
[2] = read-out: Palmitoleic acid (16:1)

T3 sequence (Q6SVB6 entry or part of it): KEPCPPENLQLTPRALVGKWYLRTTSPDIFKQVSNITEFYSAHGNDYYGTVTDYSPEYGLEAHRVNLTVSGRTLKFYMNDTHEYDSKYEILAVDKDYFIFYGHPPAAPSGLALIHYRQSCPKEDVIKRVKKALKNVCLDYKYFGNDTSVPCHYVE
T2 sequence (Q6SVB5 entry or part of it): as the sequence (Q6SVB6 entry or part of it) above, with K87E, V125I, A132S, P150H, H152R, V154L counted along it

## CCCC/C=C\CCCCCCCC(=O)O [Myristoleic acid]
Lili-Mip3; [1]
  Kd: 0.68 ± 0.49 µM
Lili-Mip2; [1]
  Kd: 2.78 ± 0.5 µM
Lili-Mip1; [1]
  Kd: 2.06 ± 0.42 µM

## CCCCCCCCCCCCCCCCCC(=O)O [Stearic acid]
Lili-Mip3; read-out: Stearic acid (18:0)
  Kd: 1.78 ± 1.74 µM
Lili-Mip2; read-out: Stearic acid (18:0)
  Kd: 2.32 ± 1.32 µM
Lili-Mip1; read-out: Stearic acid (18:0)
  Kd: 1.71 ± 0.56 µM

## CCCCCC/C=C\CCCCCCCC(=O)O [Palmitoleic acid]
Lili-Mip3; [2]
  Kd: 0.88 ± 0.62 µM
Lili-Mip2; [2]
  Kd: 2.3 ± 1.32 µM
Lili-Mip1; [2]
  Kd: 1.54 ± 0.91 µM

## CCCCCCCCCCCCCC(=O)O [Myristic acid]
Lili-Mip3; read-out: Myristic acid (14:0)
  Kd: 1.6 ± 0.51 µM
Lili-Mip1; read-out: Myristic acid (14:0)
  Kd: 1.96 ± 0.83 µM

## CCCCC/C=C\C/C=C\CCCCCCCC(=O)O [Linoleic acid]
Lili-Mip3; read-out: Linoleic acid (18:2)
  Kd: 0.27 ± 0.08 µM
Lili-Mip2; read-out: Linoleic acid (18:2)
  Kd: 2.19 ± 1.41 µM
Lili-Mip1; read-out: Linoleic acid (18:2)
  Kd: 1.56 ± 0.33 µM

## CCCCCCCC/C=C\CCCCCCCC(=O)O [Oleic acid]
Lili-Mip3; read-out: Oleic acid (18:1)
  Kd: 0.24 ± 0.11 µM
Lili-Mip2; read-out: Oleic acid (18:1)
  Kd: 1.71 ± 1.19 µM
Lili-Mip1; read-out: Oleic acid (18:1)
  Kd: 0.93 ± 0.31 µM

## CCCCCCCCCCCCCCCC(=O)O [Palmitic acid]
Lili-Mip3; read-out: Palmitic acid (16:0)
  Kd: 0.82 ± 0.61 µM
Lili-Mip2; read-out: Palmitic acid (16:0)
  Kd: 1.41 ± 0.88 µM
Lili-Mip1; read-out: Palmitic acid (16:0)
  Kd: 1.76 ± 0.88 µM
